Experiment: Determination of the surface tension (Krüss tensiometer K12, ring)
Assay type: physicochemical
Conditions: 20° C.
Text: [table] Further details on the method can be obtained from the publication by the European Commission Classification, Packaging and Labelling of Dangerous Substances in the European Union, Part II—Test Methods, Annex V—Methods for the Determination of Physico-Chemical Properties, Toxicity and Ecotoxicity, Part A, Surface Tension (A.5), January 1997, pages 51-57, and from the OECD Guideline for the Testing of Chemicals, Section 1, Physical-Chemical Properties, Method 115, pages 1-7, adopted: 27, July 95, the contents of which in this respect expressly belong to the disclosure content of the present application.

Surface tension (1.0020 g/l (4.101E−03 mol/l) in deionised water)	Surface tension (2.0015 g/l (8.192E−03 mol/l) in deionised water)	Surface tension (3.0010 g/l (1.228E−02 mol/l) in deionised water)	SMILES	Surface tension (0.5015 g/l (1.527E−03 mol/l) in deionised water)	Surface tension (1.0000 g/l (3.046E−03 mol/l) in deionised water)	Surface tension (2.0005 g/l (6.093E−03 mol/l) in deionised water)
66.13 mN/m	57.70 mN/m	52.61 mN/m	CCCCCCCCCCS(=O)(=O)[O-].[Na+] [Decane-sulfonic acid Na salt, sodium decanesulfonate]	–	–	–
–	–	–	O=S(=O)(O)CCCCCCCCCCOC(F)(F)F [Example 5, Sodium 10-trifluoromethoxydecane-1-sulfonate]	59.95 mN/m	52.55 mN/m	42.61 mN/m

Source: patent US20080149878A1, “Fluorosurfactants” (priority 2005, published 2008)
